Measured values: ChEMBL document CHEMBL3991601, “The target landscape of clinical kinase drugs” (Science, 2017)
The source made the active and inactive calls.

Assays:
[1] = biological target: Serine/threonine-protein kinase PLK1 (Homo sapiens, UniProt P53350)
[2] = biological target: Ras-related C3 botulinum toxin substrate 1 (Homo sapiens, UniProt P63000)
[3] = biological target: ALK tyrosine kinase receptor (Homo sapiens, UniProt Q9UM73); assay type: subcellular, K-562, COLO 205, SK-N-BE(2) and MV-4-11, Cell lysate; conditions: read-out: Kd apparent
[4] = biological target: T1, Cyclin-dependent kinase-like 5 (Homo sapiens, UniProt O76039)
T1 sequence (O76039 whole entry): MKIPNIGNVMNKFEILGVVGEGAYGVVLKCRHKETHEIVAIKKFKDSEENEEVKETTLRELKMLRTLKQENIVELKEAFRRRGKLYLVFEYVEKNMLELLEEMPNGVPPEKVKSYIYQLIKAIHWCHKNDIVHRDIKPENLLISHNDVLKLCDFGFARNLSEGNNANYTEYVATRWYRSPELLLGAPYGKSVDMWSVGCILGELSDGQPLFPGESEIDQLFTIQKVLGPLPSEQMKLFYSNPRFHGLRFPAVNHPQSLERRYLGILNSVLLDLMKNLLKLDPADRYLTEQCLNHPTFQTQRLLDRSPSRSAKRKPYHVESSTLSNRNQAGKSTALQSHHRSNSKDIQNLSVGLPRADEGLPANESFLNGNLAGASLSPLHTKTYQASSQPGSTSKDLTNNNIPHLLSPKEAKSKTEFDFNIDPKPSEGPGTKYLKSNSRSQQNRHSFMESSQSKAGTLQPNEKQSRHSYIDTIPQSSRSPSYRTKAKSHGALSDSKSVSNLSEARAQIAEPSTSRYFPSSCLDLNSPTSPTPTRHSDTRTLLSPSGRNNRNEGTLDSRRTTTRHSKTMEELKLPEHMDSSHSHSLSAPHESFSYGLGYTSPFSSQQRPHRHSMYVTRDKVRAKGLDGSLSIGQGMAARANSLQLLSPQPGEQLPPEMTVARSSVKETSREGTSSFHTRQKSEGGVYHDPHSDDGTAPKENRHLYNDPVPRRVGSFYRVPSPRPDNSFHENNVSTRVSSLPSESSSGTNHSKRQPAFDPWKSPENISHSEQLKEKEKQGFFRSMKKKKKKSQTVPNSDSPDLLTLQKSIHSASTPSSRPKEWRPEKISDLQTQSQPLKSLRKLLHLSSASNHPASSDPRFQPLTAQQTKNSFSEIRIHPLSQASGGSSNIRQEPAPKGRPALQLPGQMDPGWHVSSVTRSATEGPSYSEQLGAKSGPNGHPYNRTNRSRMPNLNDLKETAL

[5] = biological target: Cell division cycle 7-related protein kinase (Homo sapiens, UniProt O00311)
[6] = biological target: Cyclin-dependent kinase 18 (Homo sapiens, UniProt Q07002)

Measured: Kd
Note: in the data inactive means no Kd found up to 30 µM.

Sequence of ALK tyrosine kinase receptor (Q9UM73 whole entry): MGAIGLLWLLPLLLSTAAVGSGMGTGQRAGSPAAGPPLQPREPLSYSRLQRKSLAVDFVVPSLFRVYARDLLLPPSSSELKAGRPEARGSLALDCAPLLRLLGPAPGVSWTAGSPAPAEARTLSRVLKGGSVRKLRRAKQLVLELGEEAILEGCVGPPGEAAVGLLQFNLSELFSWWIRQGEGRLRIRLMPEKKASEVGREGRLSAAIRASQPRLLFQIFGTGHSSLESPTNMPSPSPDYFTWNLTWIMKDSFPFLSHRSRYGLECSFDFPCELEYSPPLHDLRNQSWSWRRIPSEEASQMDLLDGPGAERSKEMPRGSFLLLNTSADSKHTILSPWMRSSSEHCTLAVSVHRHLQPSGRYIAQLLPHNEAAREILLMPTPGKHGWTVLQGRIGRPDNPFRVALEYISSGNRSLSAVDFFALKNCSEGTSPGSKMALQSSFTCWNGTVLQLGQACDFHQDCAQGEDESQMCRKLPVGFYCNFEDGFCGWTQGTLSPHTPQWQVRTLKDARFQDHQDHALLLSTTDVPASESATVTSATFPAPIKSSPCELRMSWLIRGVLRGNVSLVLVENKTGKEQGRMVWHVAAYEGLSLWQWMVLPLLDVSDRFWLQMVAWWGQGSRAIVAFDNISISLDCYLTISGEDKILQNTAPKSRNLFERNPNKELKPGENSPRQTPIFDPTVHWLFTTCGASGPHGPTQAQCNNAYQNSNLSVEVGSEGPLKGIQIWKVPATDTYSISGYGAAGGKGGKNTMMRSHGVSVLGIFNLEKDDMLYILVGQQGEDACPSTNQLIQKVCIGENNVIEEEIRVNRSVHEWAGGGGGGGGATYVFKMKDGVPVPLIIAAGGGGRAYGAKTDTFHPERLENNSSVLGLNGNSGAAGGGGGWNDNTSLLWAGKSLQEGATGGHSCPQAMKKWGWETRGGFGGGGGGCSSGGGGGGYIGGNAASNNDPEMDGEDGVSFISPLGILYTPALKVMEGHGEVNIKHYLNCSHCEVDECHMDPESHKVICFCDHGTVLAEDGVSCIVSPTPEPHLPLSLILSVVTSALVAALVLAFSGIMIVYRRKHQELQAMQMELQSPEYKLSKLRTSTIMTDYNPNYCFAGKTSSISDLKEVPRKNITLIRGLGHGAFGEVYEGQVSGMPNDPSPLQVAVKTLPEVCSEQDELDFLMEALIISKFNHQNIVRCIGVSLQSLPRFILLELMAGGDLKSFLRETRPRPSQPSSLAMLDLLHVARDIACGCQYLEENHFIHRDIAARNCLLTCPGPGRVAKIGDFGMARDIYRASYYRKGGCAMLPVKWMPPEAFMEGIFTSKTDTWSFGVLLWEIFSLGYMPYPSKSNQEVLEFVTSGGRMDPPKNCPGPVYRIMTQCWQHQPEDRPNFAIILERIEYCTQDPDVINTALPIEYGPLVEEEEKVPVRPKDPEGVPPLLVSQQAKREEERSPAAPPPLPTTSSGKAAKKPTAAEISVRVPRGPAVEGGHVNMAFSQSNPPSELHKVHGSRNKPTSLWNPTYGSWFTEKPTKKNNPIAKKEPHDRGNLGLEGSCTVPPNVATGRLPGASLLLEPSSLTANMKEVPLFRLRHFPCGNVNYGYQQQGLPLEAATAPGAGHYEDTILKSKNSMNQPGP
Sequence of Cell division cycle 7-related protein kinase (O00311 whole entry): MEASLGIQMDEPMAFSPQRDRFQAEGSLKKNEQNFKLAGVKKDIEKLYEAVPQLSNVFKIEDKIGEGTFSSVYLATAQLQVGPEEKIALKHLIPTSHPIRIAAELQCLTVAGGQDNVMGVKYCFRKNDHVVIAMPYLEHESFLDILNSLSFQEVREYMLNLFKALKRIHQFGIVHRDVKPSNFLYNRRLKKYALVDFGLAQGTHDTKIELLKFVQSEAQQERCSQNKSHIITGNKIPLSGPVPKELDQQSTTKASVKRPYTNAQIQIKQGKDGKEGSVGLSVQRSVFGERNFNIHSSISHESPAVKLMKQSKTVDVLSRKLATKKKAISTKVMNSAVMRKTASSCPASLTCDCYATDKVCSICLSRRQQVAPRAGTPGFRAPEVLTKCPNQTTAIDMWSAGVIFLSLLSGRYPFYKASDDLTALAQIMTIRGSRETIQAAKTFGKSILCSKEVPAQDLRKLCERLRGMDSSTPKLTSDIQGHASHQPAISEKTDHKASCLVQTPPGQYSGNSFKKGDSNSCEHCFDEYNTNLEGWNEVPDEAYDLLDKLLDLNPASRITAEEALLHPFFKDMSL
Sequence of Cyclin-dependent kinase 18 (Q07002 whole entry): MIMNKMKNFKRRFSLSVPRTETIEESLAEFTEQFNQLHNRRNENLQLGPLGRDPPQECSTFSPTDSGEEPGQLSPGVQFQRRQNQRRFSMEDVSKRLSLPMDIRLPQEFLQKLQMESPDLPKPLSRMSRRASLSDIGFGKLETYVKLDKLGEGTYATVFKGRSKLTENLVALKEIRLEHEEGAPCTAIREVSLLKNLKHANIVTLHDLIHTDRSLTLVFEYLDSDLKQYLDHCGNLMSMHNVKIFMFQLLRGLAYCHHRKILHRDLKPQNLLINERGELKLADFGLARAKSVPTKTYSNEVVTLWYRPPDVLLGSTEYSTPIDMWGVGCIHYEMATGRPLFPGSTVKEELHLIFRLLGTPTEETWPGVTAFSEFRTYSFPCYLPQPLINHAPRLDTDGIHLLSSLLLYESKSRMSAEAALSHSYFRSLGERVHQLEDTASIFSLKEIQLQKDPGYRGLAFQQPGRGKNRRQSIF
Sequence of Serine/threonine-protein kinase PLK1 (P53350 whole entry): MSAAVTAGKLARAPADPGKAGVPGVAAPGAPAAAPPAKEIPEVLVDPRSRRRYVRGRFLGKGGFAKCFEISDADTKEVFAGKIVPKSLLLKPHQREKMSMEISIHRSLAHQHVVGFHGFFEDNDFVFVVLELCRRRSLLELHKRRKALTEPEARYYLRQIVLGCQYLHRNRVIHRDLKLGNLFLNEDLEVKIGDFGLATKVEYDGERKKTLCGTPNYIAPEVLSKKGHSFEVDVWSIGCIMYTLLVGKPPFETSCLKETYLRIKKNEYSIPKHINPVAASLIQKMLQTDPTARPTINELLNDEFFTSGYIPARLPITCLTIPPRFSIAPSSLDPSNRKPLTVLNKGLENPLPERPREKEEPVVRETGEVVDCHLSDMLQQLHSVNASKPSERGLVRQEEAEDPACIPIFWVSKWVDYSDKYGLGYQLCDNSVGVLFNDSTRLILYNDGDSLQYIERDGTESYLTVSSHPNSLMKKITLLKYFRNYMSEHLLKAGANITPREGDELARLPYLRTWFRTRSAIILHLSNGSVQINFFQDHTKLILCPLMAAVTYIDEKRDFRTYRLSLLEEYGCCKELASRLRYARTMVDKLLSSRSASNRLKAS

O=C(Nc1nc2cccc(-c3ccc(CN4CCS(=O)(=O)CC4)cc3)n2n1)C1CC1 [FILGOTINIB]
inactive: [1] > 30 µM | [2] > 30 µM | [3] > 30 µM

CCCCCCCCCCCCCCCCCCOP(=O)([O-])OC1CC[N+](C)(C)CC1 [PERIFOSINE]
inactive: [2] > 30 µM

Cc1cc(Nc2ncnc3ccc(NC4=NC(C)(C)CO4)cc23)ccc1Oc1ccn2ncnc2c1 [TUCATINIB]
inactive: [4] > 30 µM | [5] > 30 µM | [2] > 30 µM | [6] > 30 µM | [3] > 30 µM
